Results on 4 compounds are retold here after US20070185172A1, “Organic compounds” (priority 2004, published 2007).

Test [1] has as its system TNF-alpha synthesis and release in human macrophage cell line U937. Description: Inhibition of TNF-alpha synthesis and release in LPS-stimulated differentiated U937 cells. To be noted: U-937, PMA-differentiated U937 cells, 10 ng/ml LPS, 24 hours, TNFα by sandwich ELISA. The format is cell-based. The procedure: Inhibition of TNF-alpha synthesis and release may be measured by the following assay:
Human macrophage cell line U937 is obtained from American Type Culture Collection (Rockville Md.) and cultured in RPMI 1640 (Gibco UK) supplemented with 10% FCS (Gibco UK). Cell density is adjusted to 4×10^5 cells/ml and the cells are differentiated by adding phorbal myristate acetate (PMA, 20 ng/ml) for 4 hours. The PMA is removed by washing and the adherent cells are incubated for a further 48 hours at 37° C. in a humidified incubator with 5% CO2. Differentiated U937 cells are removed using cell dissociation buffer (Gibco UK) and the cell density is adjusted to 1×10^6 cells/ml. 100 μl of the cell suspension is placed in 96 well culture plates and 50 μl of either medium or compound at the appropriate concentration in dimethylsulfoxide are added. After a preincubation of 20 minutes at 37° C., the cells are stimulated with 10 ng/ml lipopolysaccharide (LPS, Sigma) and the supernatants are harvested after 24 hours of incubation at 37° C. in a humidified incubator with 5% CO2. Concentration of TNFα in the supernatants is determined by sandwich ELISA using two monoclonal antibodies recognising different epitopes of the cytokine (Pharmingen UK). Binding of the second antibody is analysed by stepwise incubation with streptavidin alkaline phosphatase conjugate (Sigma UK) and 4-nitrophenylphosphate disodium salt. Optical density is measured at 405 nm and cytokine concentration calculated based on results from serial diluations of standard recombinant TNFα. Curves are fitted and IC50 values calculated using Origin™ software.

The target in test [2] is T1, Recombinant human GR (Homo sapiens, UniProt P04150).
T1 construct: purchased Panvera (Madison, Wis., USA); host or cells: baculovirus-infected insect Sf-9 cells
T1 sequence (P04150 1-777): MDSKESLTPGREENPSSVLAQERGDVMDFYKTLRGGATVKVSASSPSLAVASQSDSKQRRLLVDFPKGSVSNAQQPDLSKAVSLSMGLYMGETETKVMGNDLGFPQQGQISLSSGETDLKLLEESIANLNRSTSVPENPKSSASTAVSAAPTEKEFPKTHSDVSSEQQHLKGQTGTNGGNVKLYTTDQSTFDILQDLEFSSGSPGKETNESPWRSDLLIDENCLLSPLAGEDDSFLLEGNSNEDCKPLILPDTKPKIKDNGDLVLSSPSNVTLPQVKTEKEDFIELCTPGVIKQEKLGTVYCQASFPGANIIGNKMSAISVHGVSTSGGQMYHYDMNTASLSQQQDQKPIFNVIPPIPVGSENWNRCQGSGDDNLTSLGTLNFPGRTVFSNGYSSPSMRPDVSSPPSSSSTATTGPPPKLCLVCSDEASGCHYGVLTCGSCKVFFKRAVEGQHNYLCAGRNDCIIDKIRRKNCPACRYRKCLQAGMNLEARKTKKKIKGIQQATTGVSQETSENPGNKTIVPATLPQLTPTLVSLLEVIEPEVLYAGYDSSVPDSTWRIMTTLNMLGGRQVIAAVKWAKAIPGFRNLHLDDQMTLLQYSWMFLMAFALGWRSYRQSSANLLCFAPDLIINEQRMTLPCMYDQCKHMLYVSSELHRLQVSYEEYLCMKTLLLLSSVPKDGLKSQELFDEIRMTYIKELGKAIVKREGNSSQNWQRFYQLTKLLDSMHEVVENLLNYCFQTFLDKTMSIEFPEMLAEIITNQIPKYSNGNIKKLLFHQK
Kind of test: Glucocorticoid receptor binding, fluorescence polarisation with Fluormone-GS1. Particulars: Fluormone-GS1 ligand, 1 hr at room temperature, Ki calculated from IC50 using the Cheng-Prussoff equation. As for the experimental part: Binding to the glucocorticoid receptor may be measured in the following assay:
Recombinant human GR expressed in baculovirus-infected insect Sf-9 cells is obtained from Panvera (Madison, Wis., USA), as is GR assay buffer and the proprietary fluorescent ligand Fluormone™-GS1 (200 nM methanol solution). The assay is conducted in 384 well plates by sequential addition of a serially diluted dimethylsulfoxide solution of test compound in water (2 μl), Fluormone™-GS1 (2.2 nM in GR assay buffer, 10 μl) and GR solution (8.8 nM in GR assay buffer, 10 μl). The assay is incubated in the dark at room temperature for 1 hr, prior to fluorescence polarisation measurement using an analyst multiwell instrument with 485 nm excitation and 530 nm emission filters. The concentration of test compound resulting in half-maximum shift in polarisation gives the IC50. Curves are fitted using Origin™ software and Ki values were calculated using the Cheng-Prussoff equation. Compounds of Examples 1, 2, 3, and 4 have Ki values of 0.5, 1.4, 0.4 and 0.2 nM respectively in this assay.

As to `CCCN1C[C@@H]2CC3C4CCC5=CC(=O)C=C[C@]5(C)C4[C@@H](O)C[C@]3(C)[C@]2(C(=O)CO)O1` (stereo partly drawn) [Example 1, (4aR,5S,6aS,6bR,9aS)-5-Hydroxy-6b-(2-hydroxy-acetyl)-4a,6a-dimethyl-8-propyl-4a,4b,5,6,6a,6b,8,9,9a,10,10a,10b,11,12-tetradecahydro-7-oxa-8-pentaleno[2,1-a]phenanthren-2-one], in test [1], the IC50 worked out at 1.16 nM. For the same compound, the inhibition constant (Ki) in test [2] was 0.5 nM.
`CN1C[C@@H]2CC3C4CCC5=CC(=O)C=C[C@]5(C)C4[C@@H](O)C[C@]3(C)[C@]2(C(=O)CO)O1` (stereo partly drawn) [Example 2, (4aR,5S,6aS,6bR,9aS)-5-Hydroxy-6b-(2-hydroxy-acetyl)-4a,6a,8-trimethyl-4a,4b,5,6,6a,6b, 8,9,9a,10a,10b,11,12-tetradecahydro-7-oxa-8-aza-pentaleno[2,1-a]phenanthren-2-one]: the 50% inhibitory concentration (IC50) in test [1] is 4.95 nM. In addition, the Ki in test [2] is 1.4 nM.
For `CCCCN1C[C@@H]2CC3C4CCC5=CC(=O)C=C[C@]5(C)C4[C@@H](O)C[C@]3(C)[C@]2(C(=O)CO)O1` (stereo partly drawn) [Example 3, (4aR,5S,6aS,6bR,9aS)-8-Butyl-5-hydroxy-6b-(2-hydroxy-acetyl)-4a,6a-dimethyl-4a,4b,5,6,6a,6b,8,9,9a,10,10a,10b,11,12-tetradecahydro-7-oxa-8-aza-pentaleno[2,1-a]phenanthren-2-one], in that order: 0.89 nM and 0.4 nM.
`C[C@]12C=CC(=O)C=C1CCC1C2[C@@H](O)C[C@@]2(C)C1C[C@H]1CN(C3CCCCC3)O[C@]12C(=O)CO` (stereo partly drawn) [Example 4, (4aR,5S,6aS,6bR,9aS)-8-Cyclohexyl-5-hydroxy-6b-(2-hydroxy-acetyl)-4a,6a-dimethyl-4a,4b, 5,6,6a,6b,8,9,9a,10,10a,10b,11,12-tetradecahydro-7-oxa-8-aza-pentaleno[2,1-a]-phenan-thren-2-one]: in test [1], 3.57 nM corresponded to half-maximal inhibition (IC50). Also, the inhibition constant (Ki) in test [2] was 0.2 nM.
